Legend:
[1] = system: pluripotent stem cells (PSCs) differentiating to cardiomyocytes; experiment: Cell yield during differentiation of pluripotent stem cells to cardiomyocytes in suspension culture; type: cell-based; details: for cell counts (cells/mL) during differentiation, FIG. 4: versus CBP conditions
Protocol: FIG. 1A depicts the timeline, base media, media supplements, small molecules for the differentiation of pluripotent stem cells to cardiomyocytes. Addition of CHIR, Wnt agonist, occurs at Day 3 of differentiation, while the Wnt antagonist Wiki, is added either 48 or 44 hours after CHIR addition. The timing from CHIR to WIKI addition is optimized for each cell line and/or reagent change to most efficiently induce cardiomyocye differentiation.
(§1) FIG. 3 (top) illustrates the current best practice (CBP) differentiation methodology including timeline, base media, media supplements and the addition of small molecules. FIG. 3 (bottom) the experimental set up to test three different methodologies designed to improve the cell yield in comparison to CBP (1). To improve the total cell yield, adding an additional media change on the day just prior to the initiation of significant cell loss (2), or the addition of ROCK inhibitor at the points of small molecule addition (CHIR or WIKI, respectively) were tested. To monitor for the fate of cells in the experiment, the cultures were monitored for cell counts (both in single cell suspension and in aggregates), glucose, lactate, and pH using a Blood Gas Analyzer (BGA); apoptosis was analyzed by AnnexinV staining; additionally, mesoderm formation was monitored by flow cytometry for CD56 and PDGFRa to determine if the addition of ROCK inhibitor changed the developmental trajectory of the cells.
FIG. 4 (top) once again illustrates the experimental design as described in […], for reference. FIG. 4 (bottom) indicates the cell counts at multiple time-points from each condition during the differentiation of experiment #19. 19-1 is CBP conditions, 19-2 is media change at day 6 conditions (including the addition of Wiki 5 uM), 19-3 is conditions that received ROCK inhibitor at the time of small molecule addition. At day 6 of differentiation cells numbers in condition 19-3 were elevated to the point of needing to double the media volume and therefore cells were split into 19-3A and 19-3B.
involves multiple steps of PSC expansion and differentiation to the desired lineage. As presented here PSCs are thawed from a suspension PSC bank (PMID: 26318718) and aggregated in suspension culture, with the addition of the ROCK inhibitor Y-27632, shown to permit survival of dissociated PSCs (PMID: 17529971). Following expansion, the cells are induced to differentiate to mesoderm and then cardiomyocytes by modulating Wnt signaling using CHIR99021 to induce mesoderm (PMID: 23257984), followed small molecule Wnt inhibitor, WIKI4 (PMID: 23227175) to specify mesoderm to the cardiomyocyte lineage (FIG. 3).
loss during the addition of CHIR99021 and WIKI4. […] Additionally, at differentiation day 13, the culture with the addition of Y-27632 yielded nearly 4× more cardiomyocytes than cultures without. Subsequently Y-27632 was added to all cultures during the differentiation (FIG. 4).

[2] = system: pluripotent stem cells (PSCs) differentiating to cardiomyocytes; experiment: Apoptosis by AnnexinV staining (flow cytometry) during cardiomyocyte differentiation; type: cell-based
From the text: as §1
FIG. 6 illustrates that apoptosis correlates with the cell loss detected in CBP conditions (19-1) and media change (including Wiki) conditions (19-2), in comparison to ROCK inhibitor conditions (19-3). This illustration also includes an additional experimental set which includes addition of ROCK inhibitor at time-points of small molecule addition (20-1), or CBP conditions (20-2). […]

COc1ccc(-n2c(SCCCN3C(=O)c4cccc5cccc(c45)C3=O)nnc2-c2ccncc2)cc1 [WIKI4]
cell loss by end of culture, FIG. 1B ([1]; additional WIKI4 on day 6 of differentiation, 8 uM CHIR): extensive loss of cells
cell counts (cells/mL) during differentiation, FIG. 4 ([1]; condition 19-2: media change at day 6 including addition of Wiki 5 uM): even more rapid loss of cells
cells/mL in the final culture, FIG. 1B ([1]; media change with no additional WIKI4 on day 6, Day 20 of differentiation): roughly 8E5 cells/mL
AnnexinV staining (apoptosis), FIG. 6 ([2]; condition 19-2: media change at day 6 including Wiki): high

C[C@@H](N)[C@H]1CC[C@H](C(=O)Nc2ccncc2)CC1 [Y-27632]
yield of pre-cardiomyocytes ([1]; Y-27632 added in combination with CHIR99021 and WIKI4, measured at day 6 of differentiation (4.7E5 cells/mL without)): 1.1E6 cells/mL
cell counts (cells/mL) during differentiation, FIG. 4 ([1]; condition 19-3: ROCK inhibitor at the time of small molecule (CHIR, WIKI) addition): significantly higher cell numbers
cardiomyocyte yield relative to cultures without Y-27632 ([1]; differentiation day 13): ~4 ×
yield of pre-cardiomyocytes relative to culture without Y-27632 ([1]; in combination with CHIR99021 and WIKI4, day 6 of differentiation): greater than double the yield
AnnexinV staining (apoptosis), FIG. 6 ([2]; condition 19-3: ROCK inhibitor at time-points of small molecule addition): low

Reference: US20250241965A1, “METHOD TO IMPROVE CELL VIABILITY OF CARDIOMYOCYTES” (UNIVERSITY OF WASHINGTON, priority 2022, published 2025)
